We go through 16 compounds from ChEMBL document CHEMBL5360618, “PepScaf: Harnessing Machine Learning with In Vitro Selection toward De Novo Macrocyclic Peptides against IL-17C/IL-17RE Interaction” (J Med Chem, 2023).

One may read the IC50 as the concentration at which inhibition is half-maximal. Low readings indicate inhibition by little substance, high ones a need for much substance.

Molecules are shown by their SMILES. Positions of bridges follow the written chain, without caps; N, C: chain ends. Residues, ends and D or L forms follow the SMILES beside them. A value given as a limit tells only on which side of the number the result lay.

The target in this assay is T1, IL17-RE-IL-17C (Homo sapiens, UniProt Q8NFR9+Q9P0M4).
T1 sequence (Q9P0M4 whole entry): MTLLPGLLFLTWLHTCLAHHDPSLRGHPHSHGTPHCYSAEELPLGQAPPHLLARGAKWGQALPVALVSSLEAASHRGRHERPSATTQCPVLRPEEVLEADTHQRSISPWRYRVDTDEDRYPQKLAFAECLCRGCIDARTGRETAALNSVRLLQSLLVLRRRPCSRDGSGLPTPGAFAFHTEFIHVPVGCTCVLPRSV
T1 sequence (Q8NFR9 whole entry): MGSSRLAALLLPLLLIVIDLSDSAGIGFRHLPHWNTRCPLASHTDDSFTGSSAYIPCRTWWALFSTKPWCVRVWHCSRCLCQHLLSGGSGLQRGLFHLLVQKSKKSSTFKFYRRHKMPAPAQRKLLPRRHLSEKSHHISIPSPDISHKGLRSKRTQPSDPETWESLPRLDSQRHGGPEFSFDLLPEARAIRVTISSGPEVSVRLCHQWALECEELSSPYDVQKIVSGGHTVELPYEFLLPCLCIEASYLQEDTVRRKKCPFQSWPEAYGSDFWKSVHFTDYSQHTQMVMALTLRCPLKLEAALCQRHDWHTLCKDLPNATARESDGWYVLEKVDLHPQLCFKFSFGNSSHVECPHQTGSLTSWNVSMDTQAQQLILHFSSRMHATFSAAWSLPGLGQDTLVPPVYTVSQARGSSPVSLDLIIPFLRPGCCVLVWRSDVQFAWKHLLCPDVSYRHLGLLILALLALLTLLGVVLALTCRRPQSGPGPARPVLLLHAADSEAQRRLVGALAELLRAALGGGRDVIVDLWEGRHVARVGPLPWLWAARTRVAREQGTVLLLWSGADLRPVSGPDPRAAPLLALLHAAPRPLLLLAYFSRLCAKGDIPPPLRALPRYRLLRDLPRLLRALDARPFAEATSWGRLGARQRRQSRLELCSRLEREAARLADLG
Description: Inhibition of IL-17C/IL-17RE interaction (unknown origin) incubated for 1.5 hrs by ELISA method. In kind it is protein-complex assay. (In general: In an ELISA, binding on a coated surface is turned into a signal by an enzyme label.)
Compound `CC(C)C[C@@H]1NC(=O)[C@H](C)NC(=O)[C@H]([C@@H](C)O)NC(=O)[C@H](C)NC(=O)[C@H](CC(C)C)NC(=O)[C@H](Cc2c[nH]c3ccccc23)NC(=O)[C@H](CO)NC(=O)[C@H](CC(=O)O)NC(=O)[C@H](Cc2ccccc2)NC(=O)[C@H](Cc2c[nH]cn2)NC(=O)[C@H](Cc2ccc(O)cc2)NC(=O)CSC[C@@H](C(=O)NCC(N)=O)NC(=O)[C@H](CCCNC(=N)N)NC1=O` ({CH2CO}-YHFDSWLATALRCG-NH2; thioether N-13) came in with an IC50 of more than 30000 nM.
The result for `CC[C@H](C)[C@@H]1NC(=O)[C@H](CCCNC(=N)N)NC(=O)[C@H](Cc2ccc(O)cc2)NC(=O)[C@H](C)NC(=O)[C@H](Cc2c[nH]cn2)NC(=O)[C@H](Cc2c[nH]cn2)NC(=O)[C@H](Cc2ccc(O)cc2)NC(=O)CSC[C@@H](C(=O)NCC(N)=O)NC(=O)CNC(=O)[C@H](CC(C)C)NC(=O)[C@H](CCC(=O)O)NC(=O)CNC(=O)[C@H](Cc2ccc(O)cc2)NC(=O)[C@H](CC(C)C)NC1=O` ({CH2CO}-YHHAYRILYGELGCG-NH2; thioether N-14) reads more than 30000 nM; that for `CC[C@H](C)[C@@H]1NC(=O)[C@H](CCCNC(=N)N)NC(=O)[C@H](Cc2ccc(O)cc2)NC(=O)[C@H](Cc2ccccc2)NC(=O)[C@H](Cc2c[nH]cn2)NC(=O)[C@H](Cc2c[nH]cn2)NC(=O)[C@H](Cc2ccc(O)cc2)NC(=O)CSC[C@@H](C(=O)NCC(N)=O)NC(=O)CNC(=O)[C@H](CC(C)C)NC(=O)[C@H](CCC(=O)O)NC(=O)CNC(=O)[C@H](Cc2ccc(O)cc2)NC(=O)[C@H](CC(C)C)NC1=O` ({CH2CO}-YHHFYRILYGELGCG-NH2; thioether N-14), 171 nM; that for `CC[C@H](C)[C@@H]1NC(=O)[C@H](CCCNC(=N)N)NC(=O)[C@H](Cc2ccc(O)cc2)NC(=O)[C@H](Cc2c[nH]cn2)NC(=O)[C@H](Cc2c[nH]cn2)NC(=O)[C@H](Cc2c[nH]cn2)NC(=O)[C@H](Cc2ccc(O)cc2)NC(=O)CSC[C@@H](C(=O)NCC(N)=O)NC(=O)CNC(=O)[C@H](CC(C)C)NC(=O)[C@H](CCC(=O)O)NC(=O)CNC(=O)[C@H](Cc2ccc(O)cc2)NC(=O)[C@H](CC(C)C)NC1=O` ({CH2CO}-YHHHYRILYGELGCG-NH2; thioether N-14), 6850 nM.
The result for `CC[C@H](C)[C@@H]1NC(=O)[C@H](CCCNC(=N)N)NC(=O)[C@H](C)NC(=O)[C@H](Cc2ccc(O)cc2)NC(=O)[C@H](Cc2c[nH]cn2)NC(=O)[C@H](Cc2c[nH]cn2)NC(=O)[C@H](Cc2ccc(O)cc2)NC(=O)CSC[C@@H](C(=O)NCC(N)=O)NC(=O)CNC(=O)[C@H](CC(C)C)NC(=O)[C@H](CCC(=O)O)NC(=O)CNC(=O)[C@H](Cc2ccc(O)cc2)NC(=O)[C@H](CC(C)C)NC1=O` ({CH2CO}-YHHYARILYGELGCG-NH2; thioether N-14) reads more than 30000 nM.
Then `CC[C@H](C)[C@@H]1NC(=O)[C@H](CCCNC(=N)N)NC(=O)[C@H](Cc2ccccc2)NC(=O)[C@H](Cc2ccc(O)cc2)NC(=O)[C@H](Cc2c[nH]cn2)NC(=O)[C@H](Cc2c[nH]cn2)NC(=O)[C@H](Cc2ccc(O)cc2)NC(=O)CSC[C@@H](C(=O)NCC(N)=O)NC(=O)CNC(=O)[C@H](CC(C)C)NC(=O)[C@H](CCC(=O)O)NC(=O)CNC(=O)[C@H](Cc2ccc(O)cc2)NC(=O)[C@H](CC(C)C)NC1=O` ({CH2CO}-YHHYFRILYGELGCG-NH2; thioether N-14), with 3970 nM; and `CC[C@H](C)[C@@H]1NC(=O)[C@H](CCCNC(=N)N)NC(=O)[C@H](Cc2c[nH]cn2)NC(=O)[C@H](Cc2ccc(O)cc2)NC(=O)[C@H](Cc2c[nH]cn2)NC(=O)[C@H](Cc2c[nH]cn2)NC(=O)[C@H](Cc2ccc(O)cc2)NC(=O)CSC[C@@H](C(=O)NCC(N)=O)NC(=O)CNC(=O)[C@H](CC(C)C)NC(=O)[C@H](CCC(=O)O)NC(=O)CNC(=O)[C@H](Cc2ccc(O)cc2)NC(=O)[C@H](CC(C)C)NC1=O` ({CH2CO}-YHHYHRILYGELGCG-NH2; thioether N-14), with more than 30000 nM.
With `CC[C@H](C)[C@@H]1NC(=O)[C@H](C)NC(=O)[C@H](Cc2ccc(O)cc2)NC(=O)[C@H](Cc2ccc(O)cc2)NC(=O)[C@H](Cc2c[nH]cn2)NC(=O)[C@H](Cc2c[nH]cn2)NC(=O)[C@H](Cc2ccc(O)cc2)NC(=O)CSC[C@@H](C(=O)NCC(N)=O)NC(=O)CNC(=O)[C@H](CC(C)C)NC(=O)[C@H](CCC(=O)O)NC(=O)CNC(=O)[C@H](Cc2ccc(O)cc2)NC(=O)[C@H](CC(C)C)NC1=O` ({CH2CO}-YHHYYAILYGELGCG-NH2; thioether N-14), the IC50 stood at 400 nM.
The result for `CC[C@H](C)[C@@H]1NC(=O)CNC(=O)[C@H](Cc2ccc(O)cc2)NC(=O)[C@H](Cc2ccc(O)cc2)NC(=O)[C@H](Cc2c[nH]cn2)NC(=O)[C@H](Cc2c[nH]cn2)NC(=O)[C@H](Cc2ccc(O)cc2)NC(=O)CSC[C@@H](C(=O)NCC(N)=O)NC(=O)CNC(=O)[C@H](CC(C)C)NC(=O)[C@H](CCC(=O)O)NC(=O)CNC(=O)[C@H](Cc2ccc(O)cc2)NC(=O)[C@H](CC(C)C)NC1=O` ({CH2CO}-YHHYYGILYGELGCG-NH2; thioether N-14) reads more than 30000 nM; that for `CC(C)C[C@@H]1NC(=O)[C@H](CCC(=O)O)NC(=O)CNC(=O)[C@H](Cc2ccc(O)cc2)NC(=O)[C@H](CC(C)C)NC(=O)[C@H](Cc2ccccc2)NC(=O)[C@H](CCCNC(=N)N)NC(=O)[C@H](Cc2ccc(O)cc2)NC(=O)[C@H](Cc2ccc(O)cc2)NC(=O)[C@H](Cc2c[nH]cn2)NC(=O)[C@H](Cc2c[nH]cn2)NC(=O)[C@H](Cc2ccc(O)cc2)NC(=O)CSC[C@@H](C(=O)NCC(N)=O)NC(=O)CNC1=O` ({CH2CO}-YHHYYRFLYGELGCG-NH2; thioether N-14), 1670 nM; that for `CC[C@H](C)[C@@H]1NC(=O)[C@H](CCCNC(=N)N)NC(=O)[C@H](Cc2ccc(O)cc2)NC(=O)[C@H](Cc2ccc(O)cc2)NC(=O)[C@H](Cc2c[nH]cn2)NC(=O)[C@H](Cc2c[nH]cn2)NC(=O)[C@H](Cc2ccc(O)cc2)NC(=O)CSC[C@@H](C(=O)NCC(N)=O)NC(=O)CNC(=O)[C@H](CC(C)C)NC(=O)[C@H](CCC(=O)O)NC(=O)CNC(=O)[C@H](Cc2ccc(O)cc2)NC(=O)[C@H](C)NC1=O` ({CH2CO}-YHHYYRIAYGELGCG-NH2; thioether N-14), more than 30000 nM.
Then `CC[C@H](C)[C@@H]1NC(=O)[C@H](CCCNC(=N)N)NC(=O)[C@H](Cc2ccc(O)cc2)NC(=O)[C@H](Cc2ccc(O)cc2)NC(=O)[C@H](Cc2c[nH]cn2)NC(=O)[C@H](Cc2c[nH]cn2)NC(=O)[C@H](Cc2ccc(O)cc2)NC(=O)CSC[C@@H](C(=O)NCC(N)=O)NC(=O)CNC(=O)[C@H](CC(C)C)NC(=O)[C@H](CCC(=O)O)NC(=O)CNC(=O)[C@H](C)NC(=O)[C@H](CC(C)C)NC1=O` ({CH2CO}-YHHYYRILAGELGCG-NH2; thioether N-14), with more than 30000 nM; and `CC[C@H](C)[C@@H]1NC(=O)[C@H](CCCNC(=N)N)NC(=O)[C@H](Cc2ccc(O)cc2)NC(=O)[C@H](Cc2ccc(O)cc2)NC(=O)[C@H](Cc2c[nH]cn2)NC(=O)[C@H](Cc2c[nH]cn2)NC(=O)[C@H](Cc2ccc(O)cc2)NC(=O)CSC[C@@H](C(=O)NCC(N)=O)NC(=O)CNC(=O)[C@H](CC(C)C)NC(=O)[C@H](CCC(=O)O)NC(=O)CNC(=O)[C@H](Cc2ccccc2)NC(=O)[C@H](CC(C)C)NC1=O` ({CH2CO}-YHHYYRILFGELGCG-NH2; thioether N-14), with 1230 nM.
The result for `CC[C@H](C)[C@@H]1NC(=O)[C@H](CCCNC(=N)N)NC(=O)[C@H](Cc2ccc(O)cc2)NC(=O)[C@H](Cc2ccc(O)cc2)NC(=O)[C@H](Cc2c[nH]cn2)NC(=O)[C@H](Cc2c[nH]cn2)NC(=O)[C@H](Cc2ccc(O)cc2)NC(=O)CSC[C@@H](C(=O)NCC(N)=O)NC(=O)CNC(=O)[C@H](CC(C)C)NC(=O)[C@H](CCC(=O)O)NC(=O)CNC(=O)[C@H](Cc2c[nH]cn2)NC(=O)[C@H](CC(C)C)NC1=O` ({CH2CO}-YHHYYRILHGELGCG-NH2; thioether N-14) reads more than 30000 nM; that for `CC[C@H](C)[C@@H]1NC(=O)[C@H](CCCNC(=N)N)NC(=O)[C@H](Cc2ccc(O)cc2)NC(=O)[C@H](Cc2ccc(O)cc2)NC(=O)[C@H](Cc2c[nH]cn2)NC(=O)[C@H](Cc2c[nH]cn2)NC(=O)[C@H](Cc2ccc(O)cc2)NC(=O)CSC[C@@H](C(=O)NCC(N)=O)NC(=O)CNC(=O)[C@H](CC(C)C)NC(=O)[C@H](CCC(=O)O)NC(=O)[C@H](C)NC(=O)[C@H](Cc2ccc(O)cc2)NC(=O)[C@H](CC(C)C)NC1=O` ({CH2CO}-YHHYYRILYAELGCG-NH2; thioether N-14), 1360 nM.
`CC[C@H](C)[C@@H]1NC(=O)[C@H](CCCNC(=N)N)NC(=O)[C@H](Cc2ccc(O)cc2)NC(=O)[C@H](Cc2ccc(O)cc2)NC(=O)[C@H](Cc2c[nH]cn2)NC(=O)[C@H](Cc2c[nH]cn2)NC(=O)[C@H](Cc2ccc(O)cc2)NC(=O)CSC[C@@H](C(=O)NCC(N)=O)NC(=O)CNC(=O)[C@H](CC(C)C)NC(=O)[C@H](C)NC(=O)CNC(=O)[C@H](Cc2ccc(O)cc2)NC(=O)[C@H](CC(C)C)NC1=O` ({CH2CO}-YHHYYRILYGALGCG-NH2; thioether N-14) returned an IC50 of 180 nM.
